The values that follow come from ChEMBL document CHEMBL2311317, “Organosilicon molecules with medicinal applications” (J Med Chem, 2013).

SMILES strings stand for the structures. The source made the active and inactive calls. No cut-off for these calls is given here.

One assay has as its system A2780. Nature of the assay: Growth inhibition of human A2780 cells by Sulforhodamine B assay. The format is functional.
Assay [1] can be described thus: Inhibition of thermolysin metalloprotease (unknown origin). Set-up: species or system Homo sapiens.
Assay [2] concerns the target Opioid receptors; mu/kappa/delta (Homo sapiens) (UniProt P41145+P41143+P35372). Nature of the assay: Inhibition of opioid receptor (unknown origin) at […].
A further assay relates to HL-60. Nature of the assay: Growth inhibition of human HL60 cells by Sulforhodamine B assay. The format is functional.
Assay [3] in a line: Inhibition of HIV protease. The arrangement: species or system Human immunodeficiency virus.
The next assay has as its system HepG2. Kind of assay: Growth inhibition of human HepG2 cells. The class given is functional, cell-based.
Assay [4] can be described thus: Inhibition of serine protease (unknown origin). Set-up: species or system Homo sapiens.

Opioid receptors; mu/kappa/delta (Homo sapiens), sequence (P35372 whole entry, looked up): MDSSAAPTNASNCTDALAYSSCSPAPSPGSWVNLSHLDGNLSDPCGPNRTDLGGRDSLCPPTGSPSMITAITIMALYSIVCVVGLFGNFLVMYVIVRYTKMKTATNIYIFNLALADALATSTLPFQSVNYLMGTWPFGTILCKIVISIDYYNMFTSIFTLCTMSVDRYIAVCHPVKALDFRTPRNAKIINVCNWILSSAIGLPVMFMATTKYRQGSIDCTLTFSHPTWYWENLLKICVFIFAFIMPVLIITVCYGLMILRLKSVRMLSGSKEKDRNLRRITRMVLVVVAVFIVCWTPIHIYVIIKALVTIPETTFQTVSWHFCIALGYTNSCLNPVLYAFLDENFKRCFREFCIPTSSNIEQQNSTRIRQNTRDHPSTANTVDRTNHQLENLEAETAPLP
Opioid receptors; mu/kappa/delta (Homo sapiens), sequence (P41143 whole entry, looked up): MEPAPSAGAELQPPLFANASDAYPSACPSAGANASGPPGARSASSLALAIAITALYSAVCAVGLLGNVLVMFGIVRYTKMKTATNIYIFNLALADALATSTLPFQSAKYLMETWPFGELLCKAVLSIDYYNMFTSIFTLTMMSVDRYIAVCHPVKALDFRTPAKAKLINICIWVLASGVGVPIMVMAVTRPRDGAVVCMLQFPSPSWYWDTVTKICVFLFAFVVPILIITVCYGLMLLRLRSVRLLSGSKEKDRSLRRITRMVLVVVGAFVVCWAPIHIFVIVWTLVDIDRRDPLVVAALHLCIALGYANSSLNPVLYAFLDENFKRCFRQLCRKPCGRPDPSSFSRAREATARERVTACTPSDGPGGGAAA
Opioid receptors; mu/kappa/delta (Homo sapiens), sequence (P41145 whole entry, looked up): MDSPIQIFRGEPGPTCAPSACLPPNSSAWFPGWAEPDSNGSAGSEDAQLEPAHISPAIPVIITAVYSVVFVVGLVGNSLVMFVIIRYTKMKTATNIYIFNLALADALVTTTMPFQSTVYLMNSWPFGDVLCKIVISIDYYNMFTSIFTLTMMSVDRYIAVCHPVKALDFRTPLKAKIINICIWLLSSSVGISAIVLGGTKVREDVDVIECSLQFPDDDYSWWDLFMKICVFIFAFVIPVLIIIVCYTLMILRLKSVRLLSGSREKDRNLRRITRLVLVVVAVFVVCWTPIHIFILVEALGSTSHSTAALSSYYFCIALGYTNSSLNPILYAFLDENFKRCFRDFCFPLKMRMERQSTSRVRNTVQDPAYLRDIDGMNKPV

In turn, `COC(=O)/C=C/[C@H]1OCCC[C@H]1O[Si](C)(C)C(C)(C)C` displayed a 50% growth inhibitory concentration (GI50) in the assay with A2780 of 98 µM. Regarding `CC(C)(C)[Si](C)(C)O[C@@H]1CCCO[C@@H]1/C=C\CO` (relative stereo), in the assay with A2780, the GI50 is more than 100 µM. Compound `CC(C)C[C@H](NC(=O)[C@H](Cc1ccccc1)C[Si](O)(O)CNC(=O)CCc1ccccc1)C(=O)O` showed an IC50 in assay [1] of 0.041 µM. In assay [2], `COc1ccc(C(CN(C)C)[Si]2(O)CCCC2)cc1` (centres undefined) displayed an inhibition of less than 50%. For the compound `COC(=O)/C=C/C[C@H]1OCCC[C@@H]1OC(C)=O`, in the assay with HL-60, the GI50 result was “inactive”. Turning to `COC(=O)/C=C/C[C@H]1OCCC[C@@H]1O` (relative stereo), the GI50 result in the assay with HL-60 was “inactive”. The same measure, in the same setting: to `COC(=O)/C=C/C[C@H]1OCCC[C@@H]1OC(=O)c1ccccc1` (relative stereo) belongs “inactive”. Regarding `O=C(N[C@H]1c2ccccc2C[C@H]1O)[C@H](Cc1ccccc1)C[Si](O)(O)C[C@@H](Cc1ccccc1)C(=O)N[C@H]1c2ccccc2C[C@H]1O`, in assay [3], the half-inhibitory concentration (IC50) was found to be 0.014 µM. The compound `COc1ccc(C(CN(C)C)[Si]2(O)CCCCC2)cc1` (racemic) had an inhibition in assay [2] of less than 50%.

`COc1ccc([Si](C)(C)[C@H]2[C@H](CC(=O)N3CCC[C@H]3CO)O[C@@]3(C(=O)N(Cc4cccc(I)c4)c4ccccc43)[C@@H]2C)cc1` gave an EC50 with HepG2 of 17 µM. Turning to `C[C@H](C[Si](O)(O)[C@H](Cc1ccccc1)NC(=O)[C@@H]1CCCN1)C(N)=O`, in assay [4], the Ki was 0.107 µM. The compound `COC(=O)/C=C\[C@H]1OCCC[C@H]1O[Si](C)(C)C(C)(C)C` (relative stereo) yielded a GI50 with A2780 of 7.3 µM. For `CN(C)CC(c1ccccc1)[Si]1(O)CCCCC1` (centres undefined), the inhibition in assay [2] was less than 50%. In the assay with HL-60, `COC(=O)/C=C/C[C@H]1OCCC[C@@H]1O[Si](C)(C)C(C)(C)C` (relative stereo) registered a 50% growth inhibitory concentration (GI50) of 22 µM.
